Measurements taken from patent publication US20110129423A1, “ANTICANCER COMPOUNDS AND SCREENING METHOD” (priority 2009, published 2011).
Values joined by “and” are separate entries in the source; they are usually repeats but may differ in a detail not shown here. Equal entries are not always repeated.

Assays:
ACTH, LH, and FSH = assay: Peptide hormone assays (ELISA) in rat plasma; assay type: in vivo; conditions: rats, 100 mg/kg daily for 14 days
Protocol: Peptide Hormone Assays. ELISA kits for the quantification of ACTH, LH, and FSH in rat plasma were obtained from USCN Life, Wuhan, China. All other reagents were obtained from Sigma Chemical Co, St. Louis, Mo. ELISA results were measured on an ELx800 plate reader (Bio-Tek, Winooski, Vt.). Samples were assayed for ACTH, LH, and FSH concentration by means of an ELISA assay kit according to the manufacturer's instructions. For the rat samples, although 100 μL of undiluted plasma were required for each assay, […], 100 μL (LH), or 30 μL (FSH) were used in order to obtain results in the quantifiable range of the assay. Samples from Day 14 were assayed in duplicate; samples from Day 0 and Day 7 were assayed singly due to the small sample volume available. Concentrations were calculated from an eight-point standard curve. Thirty-five μL of dog plasma was used for the LH assay.
The compound 17α-ethynylandrostane-3α,17β-diol (100 mg/kg) was administered to rats (n=5) daily for 14 days. The compound was a 20 mg/mL solution made of […] 2-hydroxypropyl-β-cyclodextrin in water. Vehicle lacking the compound was administered to control animals (n=5). By day 7 in the dosing period, systemic (serum) levels of testosterone, estradiol, estrone and DHEA had fallen by over 99% to essentially undetectable levels in the treated animals. Changes in LH, FSH and ACTH were not observed.

[1] = Toxicity observation in the 28-day dog study; assay type: in vivo; conditions: dogs, 20, 60 or 200 mg/kg oral daily for 28 days
Protocol: (§1) Effects of the test compound 17α-ethynylandrostane-3α,17β-[…] on steroidogenesis in dogs in vivo. Samples were collected from male dogs (5/group) treated with 0, 20, 60 or 200 mg/kg of 17α-ethynylandrostane-3α,17β-diol before dosing on days 1, 14, and 28. The animals were dosed daily for 28 days. The samples were analyzed for testosterone (T), androstendione (A4), and dehydroepiandrosterone (DHEA). Day 1 and day 28 vehicle and 60 mg/kg samples were assayed for luteinizing hormone. The compound was administered by oral administration of a 20 mg/mL 17α-ethynylandrostane-3α,17β-diol solution made of 40% 2-hydroxypropyl-β-cyclodextrin in water.

[2] = tested on: systemic (serum) levels of testosterone, estradiol, estrone and DHEA; assay: Systemic steroid hormone levels in rats dosed daily for 14 days; assay type: in vivo, rat; conditions: 100 mg/kg daily, by day 7
Protocol: Plasma samples were processed by liquid/liquid extraction using MTBE. The organic portions containing the analytes were evaporated and dried extracts were incubated at 60° C. with a dansyl chloride solution. The resulting steroid derivatives were analyzed on a Waters Xbridge™ Phenyl column by reversed-phase high-performance liquid chromatography (Agilent, Palo Alto, Calif. and Leap Technologies, Carrboro, N.C.) coupled with a tandem quadrupole mass spectrometer (Waters, Beverly, Mass.). Calibration curves for standards and QC samples for […] (Estradiol, E2) and Estrone (E1) were analyzed in parallel with the samples. Sample responses were acquired and concentrations were determined based on the calibration using Masslynx™ analysis software (Waters, Beverly, Mass.). Determination of QC statistics was performed by subtracting the endogenous concentration determined in native plasma from the total concentration found in the QC sample. No PK calculations were performed on this study. The quantifiable range of detection for E2 was 5.0 to 200.0 pg/mL. The quantifiable range of detection for E1 was 10.0 to 200.0 pg/mL. Values below the detection limit were identified as such and reported.
(§2) T, A4 and DHEA assay. Plasma samples were processed by liquid/liquid extraction using MTBE (methyl-t-butyl ether). The organic portions containing the free steroids were evaporated and the dried extracts were incubated at 60° C. with a hydroxylamine hydrochloride solution. The resulting steroid-oxime derivatives were extracted with MTBE. The organic portions containing the steroid-oxime derivatives were evaporated to dryness, reconstituted in 80/20 water/acetonitrile, and analyzed on a Waters Xbridge™ Phenyl column by reversed-phase high-performance liquid chromatography (Agilent, Palo Alto, Calif. and Leap Technologies, Carrboro, N.C.) coupled with a tandem quadrupole mass spectrometer (Waters, Beverly, Mass.). Calibration curves prepared in water and QC samples prepared in native plasma for T (4-androstene-3-one-17β-ol), A4 (4-androstene-3,17-dione), and DHEA were analyzed in parallel with the samples. Sample responses were acquired and concentrations were determined based on the calibration curve using Masslynx™ analysis software (Waters, Beverly, Mass.). Determination of QC statistics was performed by subtracting the endogenous concentration determined in native plasma from the total concentration found in the QC sample.
The quantifiable range of detection for T was 10.0 to 20000.0 pg/mL in rat (example 3) and dog (this example) samples. The quantifiable range of detection for A4 was 10.0 to 20000.0 pg/mL in rats and 20.0 to 20000.0 pg/mL in dogs. The quantifiable range of detection for DHEA was 50.0 to 200.0 pg/mL in both species. […]

steroidogenesis in dogs = assay: Effects on steroidogenesis in dogs in vivo (plasma T, A4, DHEA by LC-MS/MS); set-up: species or system dog; conditions: for Testosterone Concentrations: male dogs
Protocol: as §1, §2
The quantifiable range of detection for T was 10.0 to 20000.0 pg/mL in rat (example 3) and dog (this example) samples. The quantifiable range of detection for A4 was 10.0 to 20000.0 pg/mL in rats and 20.0 to 20000.0 pg/mL in dogs. The quantifiable range of detection for DHEA was 50.0 to 200.0 pg/mL in both species. Values below the detection limit were identified as such.

[3] = dogs, end of 28 days of daily oral dosing, dose group not specified

## C#C[C@]1(O)CC[C@H]2[C@@H]3CCC4C[C@H](O)CC[C@]4(C)[C@H]3CC[C@@]21C (stereo partly drawn) [17α-ethynylandrostane-3α,17β-diol]
ACTH, LH, and FSH
  changes in ACTH: not observed
  changes in FSH: not observed
  changes in LH: not observed
[1]
  toxicity in the animals: Significant toxicity was not observed
[2]
  fall of systemic (serum) level of DHEA: over 99%
  fall of systemic (serum) level of estradiol: over 99%
  fall of systemic (serum) level of estrone: over 99%
  fall of systemic (serum) level of testosterone: over 99%
Steroidogenesis in dogs; [3]
  decrease of A4 (androstendione) level compared to vehicle control: about 99%
  decrease of DHEA level: about 90%
  decrease of T (testosterone) level compared to vehicle control: about 99%
Steroidogenesis in dogs; 20 mg/kg oral daily, day 1 sample before dosing (baseline), individual animals A111M-A115M, 20 mg/kg
  Testosterone Concentrations: 1747.2 pg/mL and 1677.0 pg/mL and 668.6 pg/mL and 771.4 pg/mL and 2450.6 pg/mL
Steroidogenesis in dogs; 20 mg/kg oral daily, day 14, individual animals A111M-A115M, 20 mg/kg
  Testosterone Concentrations: 67.8 pg/mL and 51.1 pg/mL and 344.9 pg/mL and 90.1 pg/mL and 94.4 pg/mL
Steroidogenesis in dogs; 20 mg/kg oral daily, day 28, individual animals A111M-A115M, BQL = below the limit of quantitation (lower limit 10.0 pg/mL), 20 mg/kg
  Testosterone Concentrations: 19.3 pg/mL and 60.8 pg/mL and 143.8 pg/mL and 173.0 pg/mL and BQL
Steroidogenesis in dogs; 60 mg/kg oral daily, day 1 sample before dosing (baseline), individual animals A121M-A125M, 60 mg/kg
  Testosterone Concentrations: 46.9 pg/mL and 711.2 pg/mL and 723.8 pg/mL and 1371.3 pg/mL and 1659.6 pg/mL
Steroidogenesis in dogs; 60 mg/kg oral daily, day 14, individual animals A121M-A125M, 60 mg/kg
  Testosterone Concentrations: 173.7 pg/mL and 38.5 pg/mL and 110.4 pg/mL and 144.1 pg/mL and 338.0 pg/mL
Steroidogenesis in dogs; 60 mg/kg oral daily, day 28, individual animals A121M-A125M, BQL = below the limit of quantitation (lower limit 10.0 pg/mL), 60 mg/kg
  Testosterone Concentrations: 18.9 pg/mL and BQL (4×)
Steroidogenesis in dogs; 200 mg/kg oral daily, day 1 sample before dosing (baseline), individual animals A131M-A135M, 200 mg/kg
  Testosterone Concentrations: 503.3 pg/mL and 350.3 pg/mL and 1816.6 pg/mL and 1891.0 pg/mL
Steroidogenesis in dogs; 200 mg/kg oral daily, day 14, individual animals A131M-A135M, BQL = below the limit of quantitation (lower limit 10.0 pg/mL), 200 mg/kg
  Testosterone Concentrations: BQL (2×) and 119.5 pg/mL and 236.6 pg/mL and 18.1 pg/mL
Steroidogenesis in dogs; 200 mg/kg oral daily, day 28, individual animals A131M-A135M, BQL = below the limit of quantitation (lower limit 10.0 pg/mL), 200 mg/kg
  Testosterone Concentrations: BQL (2×) and 11.2 pg/mL and 10.2 pg/mL
